The supplement of paper PMC10307832

Key:
Assay in all cases: relative viability (nuclei count vs DMSO), 5 days (fraction); higher = more cells survive
ChaGo-K-1 = tested on: ChaGo-K-1
Summary of the method: (§1)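 Relative viability was taken as the ratio of nuclei in treated wells to nuclei in vehicle wells. Lung cancer cell lines in 1536-well plates received compounds by pin tool one day after seeding, either one drug alone or a fixed anchor-drug dose plus five library-drug doses (not always all listed) in √10 steps. Nuclei were counted on 4× images after 5 days of treatment, and values are medians of duplicate plates.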

LCLC-97TM1 = tested on: LCLC-97TM1
Summary of the method: as §1

NCI-H647 = tested on: NCI-H647
Summary of the method: as §1

NCI-H661 = tested on: NCI-H661
Summary of the method: as §1

COR-L 105 = tested on: COR-L 105
Summary of the method: as §1

PC-14 = tested on: PC-14
Summary of the method: as §1

NCI-H2087 = tested on: NCI-H2087
Summary of the method: as §1

NCI-H1915 = tested on: NCI-H1915
Summary of the method: as §1

LC-2-ad = tested on: LC-2-ad
Summary of the method: as §1

NCI-H650 = tested on: NCI-H650
Summary of the method: as §1

NCI-H23 = tested on: NCI-H23
Summary of the method: as §1

H3255 = tested on: H3255
Summary of the method: as §1

NCI-H2347 = tested on: NCI-H2347
Summary of the method: as §1

NCI-H1666 = tested on: NCI-H1666
Summary of the method: as §1

201T = tested on: 201T
Summary of the method: as §1

NCI-H2126 = tested on: NCI-H2126
Summary of the method: as §1

NCI-H520 = tested on: NCI-H520
Summary of the method: as §1

RERF-LC-KJ = tested on: RERF-LC-KJ
Summary of the method: as §1

HCC-827 = tested on: HCC-827
Summary of the method: as §1

HCC-78 = tested on: HCC-78
Summary of the method: as §1

NCI-H2405 = tested on: NCI-H2405
Summary of the method: as §1

EPLC-272H = tested on: EPLC-272H
Summary of the method: as §1

SMILES: CC(=O)O[C@@]12CO[C@@H]1C[C@H](O)[C@@]1(C)C(=O)[C@H](O)C3=C(C)[C@@H](OC(=O)[C@H](O)[C@@H](NC(=O)OC(C)(C)C)c4ccccc4)C[C@@](O)([C@@H](OC(=O)c4ccccc4)[C@H]21)C3(C)C [Docetaxel] + CC(=O)Nc1cccc(-n2c(=O)n(C3CC3)c(=O)c3c(Nc4ccc(I)cc4F)n(C)c(=O)c(C)c32)c1 [Trametinib] (partner 0.02 µM)
- relative viability (ChaGo-K-1; first compound 0.0002 µM): 0.871
- relative viability (ChaGo-K-1; first compound 0.000632 µM): 0.815
- relative viability (ChaGo-K-1; first compound 0.002 µM): 0.443
- relative viability (ChaGo-K-1; first compound 0.006325 µM): 0.323
- relative viability (ChaGo-K-1; first compound 0.02 µM): 0.157
- relative viability (LCLC-97TM1; first compound 0.0002 µM): 0.171
- relative viability (LCLC-97TM1; first compound 0.000632 µM): 0.195
- relative viability (LCLC-97TM1; first compound 0.002 µM): 0.148
- relative viability (LCLC-97TM1; first compound 0.006325 µM): 0.108
- relative viability (LCLC-97TM1; first compound 0.02 µM): 0.08
- relative viability (NCI-H647; first compound 0.0002 µM): 0.331
- relative viability (NCI-H647; first compound 0.000632 µM): 0.361
- relative viability (NCI-H647; first compound 0.002 µM): 0.178
- relative viability (NCI-H647; first compound 0.006325 µM): 0.118
- relative viability (NCI-H647; first compound 0.02 µM): 0.0816
- relative viability (NCI-H661; first compound 0.0002 µM): 0.53
- relative viability (NCI-H661; first compound 0.000632 µM): 0.611
- relative viability (NCI-H661; first compound 0.002 µM): 0.568
- relative viability (NCI-H661; first compound 0.006325 µM): 0.371
- relative viability (NCI-H661; first compound 0.02 µM): 0.347
- relative viability (COR-L 105; first compound 0.0002 µM): 0.399
- relative viability (COR-L 105; first compound 0.000632 µM): 0.445
- relative viability (COR-L 105; first compound 0.002 µM): 0.428
- relative viability (COR-L 105; first compound 0.006325 µM): 0.339
- relative viability (COR-L 105; first compound 0.02 µM): 0.392
- relative viability (PC-14; first compound 0.0002 µM): 0.648
- relative viability (PC-14; first compound 0.000632 µM): 0.679
- relative viability (PC-14; first compound 0.002 µM): 0.0905
- relative viability (PC-14; first compound 0.006325 µM): 0.0687
- relative viability (PC-14; first compound 0.02 µM): 0.0257
- relative viability (NCI-H2087; first compound 0.0002 µM): 0.159
- relative viability (NCI-H2087; first compound 0.000632 µM): 0.208
- relative viability (NCI-H2087; first compound 0.002 µM): 0.181
- relative viability (NCI-H2087; first compound 0.006325 µM): 0.118
- relative viability (NCI-H2087; first compound 0.02 µM): 0.0893
- relative viability (NCI-H1915; first compound 0.0002 µM): 0.3
- relative viability (NCI-H1915; first compound 0.000632 µM): 0.288
- relative viability (NCI-H1915; first compound 0.002 µM): 0.228
- relative viability (NCI-H1915; first compound 0.006325 µM): 0.151
- relative viability (NCI-H1915; first compound 0.02 µM): 0.0803
- relative viability (LC-2-ad; first compound 0.0002 µM): 0.886
- relative viability (LC-2-ad; first compound 0.000632 µM): 0.737
- relative viability (LC-2-ad; first compound 0.002 µM): 0.345
- relative viability (LC-2-ad; first compound 0.006325 µM): 0.297
- relative viability (LC-2-ad; first compound 0.02 µM): 0.226
- relative viability (NCI-H650; first compound 0.0002 µM): 0.932
- relative viability (NCI-H650; first compound 0.000632 µM): 0.644
- relative viability (NCI-H650; first compound 0.002 µM): 0.318
- relative viability (NCI-H650; first compound 0.006325 µM): 0.295
- relative viability (NCI-H650; first compound 0.02 µM): 0.16
- relative viability (NCI-H23; first compound 0.0002 µM): 0.377
- relative viability (NCI-H23; first compound 0.000632 µM): 0.294
- relative viability (NCI-H23; first compound 0.002 µM): 0.278
- relative viability (NCI-H23; first compound 0.006325 µM): 0.195
- relative viability (NCI-H23; first compound 0.02 µM): 0.132
- relative viability (H3255; first compound 0.0002 µM): 0.554
- relative viability (H3255; first compound 0.000632 µM): 0.635
- relative viability (H3255; first compound 0.002 µM): 0.52
- relative viability (H3255; first compound 0.006325 µM): 0.361
- relative viability (H3255; first compound 0.02 µM): 0.303
- relative viability (NCI-H2347; first compound 0.0002 µM): 0.243
- relative viability (NCI-H2347; first compound 0.000632 µM): 0.349
- relative viability (NCI-H2347; first compound 0.002 µM): 0.262
- relative viability (NCI-H2347; first compound 0.006325 µM): 0.271
- relative viability (NCI-H2347; first compound 0.02 µM): 0.229
- relative viability (NCI-H1666; first compound 0.0002 µM): 0.846
- relative viability (NCI-H1666; first compound 0.000632 µM): 0.695
- relative viability (NCI-H1666; first compound 0.002 µM): 0.645
- relative viability (NCI-H1666; first compound 0.006325 µM): 0.771
- relative viability (NCI-H1666; first compound 0.02 µM): 0.521
- relative viability (201T; first compound 0.0002 µM): 0.7
- relative viability (201T; first compound 0.000632 µM): 0.713
- relative viability (201T; first compound 0.002 µM): 0.644
- relative viability (201T; first compound 0.006325 µM): 0.498
- relative viability (201T; first compound 0.02 µM): 0.366
- relative viability (NCI-H2126; first compound 0.0002 µM): 0.543
- relative viability (NCI-H2126; first compound 0.000632 µM): 0.471
- relative viability (NCI-H2126; first compound 0.002 µM): 0.403
- relative viability (NCI-H2126; first compound 0.006325 µM): 0.31
- relative viability (NCI-H520; first compound 0.0002 µM): 0.565
- relative viability (NCI-H520; first compound 0.000632 µM): 0.711
- relative viability (NCI-H520; first compound 0.002 µM): 0.243
- relative viability (NCI-H520; first compound 0.006325 µM): 0.206
- relative viability (NCI-H520; first compound 0.02 µM): 0.119
- relative viability (RERF-LC-KJ; first compound 0.0002 µM): 0.767
- relative viability (RERF-LC-KJ; first compound 0.000632 µM): 0.816
- relative viability (RERF-LC-KJ; first compound 0.002 µM): 0.39
- relative viability (RERF-LC-KJ; first compound 0.006325 µM): 0.217
- relative viability (RERF-LC-KJ; first compound 0.02 µM): 0.142
- relative viability (HCC-827; first compound 0.0002 µM): 0.545
- relative viability (HCC-827; first compound 0.000632 µM): 0.524
- relative viability (HCC-827; first compound 0.002 µM): 0.376
- relative viability (HCC-827; first compound 0.006325 µM): 0.272
- relative viability (HCC-827; first compound 0.02 µM): 0.189
- relative viability (HCC-78; first compound 0.0002 µM): 0.751
- relative viability (HCC-78; first compound 0.000632 µM): 0.73
- relative viability (HCC-78; first compound 0.002 µM): 0.502
- relative viability (HCC-78; first compound 0.006325 µM): 0.446
- relative viability (HCC-78; first compound 0.02 µM): 0.371
- relative viability (NCI-H2405; first compound 0.0002 µM): 0.597
- relative viability (NCI-H2405; first compound 0.000632 µM): 0.618
- relative viability (NCI-H2405; first compound 0.002 µM): 0.531
- relative viability (NCI-H2405; first compound 0.006325 µM): 0.456
- relative viability (NCI-H2405; first compound 0.02 µM): 0.266
- relative viability (EPLC-272H; first compound 0.0002 µM): 0.32
- relative viability (EPLC-272H; first compound 0.000632 µM): 0.276
- relative viability (EPLC-272H; first compound 0.006325 µM): 0.136
- relative viability (EPLC-272H; first compound 0.02 µM): 0.0951
